This note sets out measurements from publication PMC10102027, “Helquat dyes targeting G-quadruplexes as a new class of anti-HIV-1 inhibitors” (Scientific Reports, 2023).

Assay [1] has as its system ss G4 LTR wild-type oligonucleotide. Nature of the assay: Light-up experiment, ss G4 LTR. Format: binding, HIV-1. Conditions: 4 μM compound. The method, then:
There are many small molecular probes for specific G4 visualization in cells. […] To distinguish specifically the potential light-up triggered by helquat binding to G-quadruplexes in the HIV-1 LTR, we employed two control oligonucleotides, both unable to form G-quadruplexes (Fig. 6A): an LTR oligonucleotide sequence with two point mutations precluding G4 formation and an LTR oligonucleotide with a scrambled sequence (both adopted from[41]).
The selected compounds were incubated in the presence of the G4 LTR wild-type (wt) oligonucleotide, the G4 LTR M4 + M5 oligonucleotide containing mutations that disabled G-quadruplex formation (described previously[41]), and the G4 LTR scrambled-sequence oligonucleotide, or the buffer-only control. The compounds were tested at a compound:oligonucleotide ratio of 2:1 (4 μM compounds and 2 μM oligonucleotide) in PBS in a 384-well plate. Emission spectra were measured after excitation at 280 nm in a Tecan Infinite M1000 plate reader. The fluorescent image of the plate was taken with the Bio-Rad ChemiDoc imaging system after UV-light excitation. The Light-up titration experiment was performed similarly as described above with the exception that 4 μM compound 12 was incubated with serial dilutions (1:1) of oligonucleotides (ss G4 LTR wild type, G4 c-myc and G4 c-kit1) spanning final concentrations 2 to 0.002 μM. The excitation at 280 nm and emission at 600 nm were used to monitor the Light-up.

The next assay has as its system ds G4 LTR. Nature of the assay: Light-up experiment, ds G4 LTR. Conditions: 4 μM compound, excitation 280 nm. Format: binding, HIV-1. The method, then:
(§1) The intensity of fluorescence measured after the incubation with both oligonucleotides incompetent of G-quadruplex formation was almost identical, with the maximum intensity 2.5 times lower than that of the G-quadruplex-forming oligonucleotide (wt). […] To examine the specificity of ligand 12, we have repeated the light-up experiment with single-stranded G4 LTR in parallel with double-stranded G4 LTR and additional G-quadruplexes (c-myc, c-kit1 and h-telo). […] To further evaluate the specificity of ligand 12, we performed the light-up titration experiment incubating compound 12 with serial dilutions (1:1) of oligonucleotides (ss G4 LTR wild type, G4 c-myc and c-kit1) spanning final concentrations 2 to 0.002 μM (Supplement Fig. S3B). […] This can indicate a slight preference of ligand 12 for ss G4 LTR than for c-myc at lower oligonucleotide concentrations.
(§2) The selected compounds were incubated in the presence of the G4 LTR wild-type (wt) oligonucleotide, the G4 LTR M4 + M5 oligonucleotide containing mutations that disabled G-quadruplex formation (described previously[41]), and the G4 LTR scrambled-sequence oligonucleotide, or the buffer-only control. The compounds were tested at a compound:oligonucleotide ratio of 2:1 (4 μM compounds and 2 μM oligonucleotide) in PBS in a 384-well plate. Emission spectra were measured after excitation at 280 nm in a Tecan Infinite M1000 plate reader. […]

The test system of the next assay is c-myc G-quadruplex. As to the kind of experiment: Light-up experiment, c-myc. It is filed as binding. The note with it: 4 μM compound, excitation 280 nm. As to the method: as §1, §2
In the next assay the test system is c-kit1 G-quadruplex. As to the kind of experiment: Light-up experiment, c-kit1. It is filed as binding. The note with it: 4 μM compound, excitation 280 nm. As to the method:
as §1, §2

For the next assay, the system named is h-telo G-quadruplex. Nature of the assay: Light-up experiment, h-telo. Format: binding. Conditions: 4 μM compound, excitation 280 nm. As to the method:
as §1, §2

The mark [2] stands for this setting: 2 μM oligonucleotide, excitation 280 nm.

Consider `Cn1cc(/C=C/c2cc(/C=C/c3cn(C)c4ccccc34)[n+]3c(c2)-c2c(ccc4c2-c2cccc[n+]2CCC4)CCC3)c2ccccc21` [Compound 12], for which the fluorescence light-up entry is “strong and specific fluorescence” in assay [1] (setting [2]); “very weak fluorescence” with ds G4 LTR; “strong fluorescence” in the assay on c-myc G-quadruplex; “strong fluorescence” in the assay on c-kit1 G-quadruplex; “low fluorescence” in the assay with h-telo G-quadruplex. In addition, the “maximum fluorescence intensity with non-G4-forming oligonucleotides (M4 + M5, scrambled), times lower than with wt” value in assay [1] (setting [2]) is 2.5 times. In addition, the “fluorescence in light-up titration, ss G4 LTR versus c-myc and c-kit1” value in assay [1] (oligonucleotide concentration of 0.5 μM and below, emission 600 nm) was “stronger fluorescence after incubation with ss G4 LTR”.
